Measurements reported in BigSolDB 2.1.

`Cc1ccc(S(=O)(=O)NC(=O)NN2CC3CCCC3C2)cc1` (stereo not drawn) gave a solubility (mole fraction) (in DMF, 278.15 K) of 0.0571, a solubility (mole fraction) (in DMF, 283.15 K) of 0.0629 and a solubility (mole fraction) (in DMF, 288.15 K) of 0.0684. For the same compound, the solubility (mole fraction) (in DMF, 293.15 K) was 0.0743, the solubility (mole fraction) (in DMF, 298.15 K) was 0.0801 and the solubility (mole fraction) (in DMF, 303.15 K) was 0.0866. The solubility (mole fraction) (in DMF, 308.15 K) was 0.0935, the solubility (mole fraction) (in DMF, 313.15 K) was 0.101 and the solubility (mole fraction) (in DMF, 318.15 K) was 0.109. It also gave a solubility (mole fraction) (in THF, 278.15 K) of 0.018, a solubility (mole fraction) (in THF, 283.15 K) of 0.0217 and a solubility (mole fraction) (in THF, 288.15 K) of 0.0266. The solubility (mole fraction) (in THF, 293.15 K) was 0.0318, the solubility (mole fraction) (in THF, 298.15 K) was 0.0384 and the solubility (mole fraction) (in THF, 303.15 K) was 0.0462. The solubility (mole fraction) (in THF, 308.15 K) was 0.0539, the solubility (mole fraction) (in THF, 313.15 K) was 0.0635 and the solubility (mole fraction) (in THF, 318.15 K) was 0.076. For the same compound, the solubility (mole fraction) (in acetone, 278.15 K) was 0.00883, the solubility (mole fraction) (in acetone, 283.15 K) was 0.0103 and the solubility (mole fraction) (in acetone, 288.15 K) was 0.0121. It also gave a solubility (mole fraction) (in acetone, 293.15 K) of 0.0141, a solubility (mole fraction) (in acetone, 298.15 K) of 0.0166 and a solubility (mole fraction) (in acetone, 303.15 K) of 0.0191. The solubility (mole fraction) (in acetone, 308.15 K) was 0.0219, the solubility (mole fraction) (in acetone, 313.15 K) was 0.0252 and the solubility (mole fraction) (in acetone, 318.15 K) was 0.0291. For the same compound, the solubility (mole fraction) (in acetonitrile, 278.15 K) was 0.00172, the solubility (mole fraction) (in acetonitrile, 283.15 K) was 0.00211 and the solubility (mole fraction) (in acetonitrile, 288.15 K) was 0.00262. The solubility (mole fraction) (in acetonitrile, 293.15 K) was 0.00319, the solubility (mole fraction) (in acetonitrile, 298.15 K) was 0.0039 and the solubility (mole fraction) (in acetonitrile, 303.15 K) was 0.00473. For the same compound, the solubility (mole fraction) (in acetonitrile, 308.15 K) was 0.00557, the solubility (mole fraction) (in acetonitrile, 313.15 K) was 0.00658 and the solubility (mole fraction) (in acetonitrile, 318.15 K) was 0.00796. The solubility (mole fraction) (in chloroform, 278.15 K) was 0.0581, the solubility (mole fraction) (in chloroform, 283.15 K) was 0.0641 and the solubility (mole fraction) (in chloroform, 288.15 K) was 0.07. For the same compound, the solubility (mole fraction) (in chloroform, 293.15 K) was 0.0773, the solubility (mole fraction) (in chloroform, 298.15 K) was 0.0842 and the solubility (mole fraction) (in chloroform, 303.15 K) was 0.0919. The solubility (mole fraction) (in chloroform, 308.15 K) was 0.1, the solubility (mole fraction) (in chloroform, 313.15 K) was 0.109 and the solubility (mole fraction) (in chloroform, 318.15 K) was 0.119. It also gave a solubility (mole fraction) (in cyclohexanone, 278.15 K) of 0.0112, a solubility (mole fraction) (in cyclohexanone, 283.15 K) of 0.0133 and a solubility (mole fraction) (in cyclohexanone, 288.15 K) of 0.0155. The solubility (mole fraction) (in cyclohexanone, 293.15 K) was 0.0181, the solubility (mole fraction) (in cyclohexanone, 298.15 K) was 0.0209 and the solubility (mole fraction) (in cyclohexanone, 303.15 K) was 0.0243. The solubility (mole fraction) (in cyclohexanone, 308.15 K) was 0.0278, the solubility (mole fraction) (in cyclohexanone, 313.15 K) was 0.0322 and the solubility (mole fraction) (in cyclohexanone, 318.15 K) was 0.0371. For the same compound, the solubility (mole fraction) (in ethanol, 278.15 K) was 0.000739, the solubility (mole fraction) (in ethanol, 283.15 K) was 0.000911 and the solubility (mole fraction) (in ethanol, 288.15 K) was 0.00113. It also gave a solubility (mole fraction) (in ethanol, 293.15 K) of 0.00137, a solubility (mole fraction) (in ethanol, 298.15 K) of 0.00169 and a solubility (mole fraction) (in ethanol, 303.15 K) of 0.00203. The solubility (mole fraction) (in ethanol, 308.15 K) was 0.00249, the solubility (mole fraction) (in ethanol, 313.15 K) was 0.00296 and the solubility (mole fraction) (in ethanol, 318.15 K) was 0.00358. The solubility (mole fraction) (in ethyl acetate, 278.15 K) was 0.00146, the solubility (mole fraction) (in ethyl acetate, 283.15 K) was 0.00174 and the solubility (mole fraction) (in ethyl acetate, 288.15 K) was 0.00212. It also gave a solubility (mole fraction) (in ethyl acetate, 293.15 K) of 0.00248, a solubility (mole fraction) (in ethyl acetate, 298.15 K) of 0.00294 and a solubility (mole fraction) (in ethyl acetate, 303.15 K) of 0.00351. It also gave a solubility (mole fraction) (in ethyl acetate, 308.15 K) of 0.00411, a solubility (mole fraction) (in ethyl acetate, 313.15 K) of 0.00477 and a solubility (mole fraction) (in ethyl acetate, 318.15 K) of 0.00558. The solubility (mole fraction) (in ethyl formate, 278.15 K) was 0.00188, the solubility (mole fraction) (in ethyl formate, 283.15 K) was 0.00239 and the solubility (mole fraction) (in ethyl formate, 288.15 K) was 0.00297. It also gave a solubility (mole fraction) (in ethyl formate, 293.15 K) of 0.00364, a solubility (mole fraction) (in ethyl formate, 298.15 K) of 0.00453 and a solubility (mole fraction) (in ethyl formate, 303.15 K) of 0.00549. It also gave a solubility (mole fraction) (in ethyl formate, 308.15 K) of 0.00673, a solubility (mole fraction) (in ethyl formate, 313.15 K) of 0.0082 and a solubility (mole fraction) (in ethyl formate, 318.15 K) of 0.00976. It also gave a solubility (mole fraction) (in isobutanol, 278.15 K) of 0.00042, a solubility (mole fraction) (in isobutanol, 283.15 K) of 0.000544 and a solubility (mole fraction) (in isobutanol, 288.15 K) of 0.000709. The solubility (mole fraction) (in isobutanol, 293.15 K) was 0.000916, the solubility (mole fraction) (in isobutanol, 298.15 K) was 0.00114 and the solubility (mole fraction) (in isobutanol, 303.15 K) was 0.00146. For the same compound, the solubility (mole fraction) (in isobutanol, 308.15 K) was 0.0018, the solubility (mole fraction) (in isobutanol, 313.15 K) was 0.00226 and the solubility (mole fraction) (in isobutanol, 318.15 K) was 0.00286. The solubility (mole fraction) (in isopropanol, 278.15 K) was 0.000332, the solubility (mole fraction) (in isopropanol, 283.15 K) was 0.000439 and the solubility (mole fraction) (in isopropanol, 288.15 K) was 0.000579. It also gave a solubility (mole fraction) (in isopropanol, 293.15 K) of 0.000738, a solubility (mole fraction) (in isopropanol, 298.15 K) of 0.000945 and a solubility (mole fraction) (in isopropanol, 303.15 K) of 0.0012. The solubility (mole fraction) (in isopropanol, 308.15 K) was 0.00151, the solubility (mole fraction) (in isopropanol, 313.15 K) was 0.00192 and the solubility (mole fraction) (in isopropanol, 318.15 K) was 0.00241. The solubility (mole fraction) (in methanol, 278.15 K) was 0.00122, the solubility (mole fraction) (in methanol, 283.15 K) was 0.00149 and the solubility (mole fraction) (in methanol, 288.15 K) was 0.00178. For the same compound, the solubility (mole fraction) (in methanol, 293.15 K) was 0.00216, the solubility (mole fraction) (in methanol, 298.15 K) was 0.00257 and the solubility (mole fraction) (in methanol, 303.15 K) was 0.00304. The solubility (mole fraction) (in methanol, 308.15 K) was 0.00358, the solubility (mole fraction) (in methanol, 313.15 K) was 0.00428 and the solubility (mole fraction) (in methanol, 318.15 K) was 0.00497. The solubility (mole fraction) (in methyl acetate, 278.15 K) was 0.00229, the solubility (mole fraction) (in methyl acetate, 283.15 K) was 0.00283 and the solubility (mole fraction) (in methyl acetate, 288.15 K) was 0.00339. It also gave a solubility (mole fraction) (in methyl acetate, 293.15 K) of 0.00418, a solubility (mole fraction) (in methyl acetate, 298.15 K) of 0.00499 and a solubility (mole fraction) (in methyl acetate, 303.15 K) of 0.00588. The solubility (mole fraction) (in methyl acetate, 308.15 K) was 0.00699, the solubility (mole fraction) (in methyl acetate, 313.15 K) was 0.00838 and the solubility (mole fraction) (in methyl acetate, 318.15 K) was 0.00982. For the same compound, the solubility (mole fraction) (in n-butanol, 278.15 K) was 0.000624, the solubility (mole fraction) (in n-butanol, 283.15 K) was 0.000787 and the solubility (mole fraction) (in n-butanol, 288.15 K) was 0.000984. For the same compound, the solubility (mole fraction) (in n-butanol, 293.15 K) was 0.00123, the solubility (mole fraction) (in n-butanol, 298.15 K) was 0.00152 and the solubility (mole fraction) (in n-butanol, 303.15 K) was 0.00192. The solubility (mole fraction) (in n-butanol, 308.15 K) was 0.0023, the solubility (mole fraction) (in n-butanol, 313.15 K) was 0.00286 and the solubility (mole fraction) (in n-butanol, 318.15 K) was 0.00344. It also gave a solubility (mole fraction) (in n-propanol, 278.15 K) of 0.000655, a solubility (mole fraction) (in n-propanol, 283.15 K) of 0.000831 and a solubility (mole fraction) (in n-propanol, 288.15 K) of 0.00103. The solubility (mole fraction) (in n-propanol, 293.15 K) was 0.00129, the solubility (mole fraction) (in n-propanol, 298.15 K) was 0.00162 and the solubility (mole fraction) (in n-propanol, 303.15 K) was 0.00199. For the same compound, the solubility (mole fraction) (in n-propanol, 308.15 K) was 0.00238, the solubility (mole fraction) (in n-propanol, 313.15 K) was 0.00291 and the solubility (mole fraction) (in n-propanol, 318.15 K) was 0.0035. For the same compound, the solubility (mole fraction) (in sec-butanol, 278.15 K) was 0.000505, the solubility (mole fraction) (in sec-butanol, 283.15 K) was 0.000643 and the solubility (mole fraction) (in sec-butanol, 288.15 K) was 0.000834. It also gave a solubility (mole fraction) (in sec-butanol, 293.15 K) of 0.00106, a solubility (mole fraction) (in sec-butanol, 298.15 K) of 0.00133 and a solubility (mole fraction) (in sec-butanol, 303.15 K) of 0.00166. The solubility (mole fraction) (in sec-butanol, 308.15 K) was 0.00205, the solubility (mole fraction) (in sec-butanol, 313.15 K) was 0.00258 and the solubility (mole fraction) (in sec-butanol, 318.15 K) was 0.00322. It also gave a solubility (mole fraction) (in toluene, 278.15 K) of 0.000307, a solubility (mole fraction) (in toluene, 283.15 K) of 0.000395 and a solubility (mole fraction) (in toluene, 288.15 K) of 0.000499. It also gave a solubility (mole fraction) (in toluene, 293.15 K) of 0.000634, a solubility (mole fraction) (in toluene, 298.15 K) of 0.000789 and a solubility (mole fraction) (in toluene, 303.15 K) of 0.000979. The solubility (mole fraction) (in toluene, 308.15 K) was 0.00119, the solubility (mole fraction) (in toluene, 313.15 K) was 0.0015 and the solubility (mole fraction) (in toluene, 318.15 K) was 0.00181.
